Experimental data from PubChem BioAssay AID504687 (Sanford-Burnham Center for Chemical Genomics, 2011).
The source made the active and inactive calls. How the calls were made is not given here.

Biological target: Ubiquitin-conjugating enzyme E2 N (Homo sapiens) (UniProt P61088)
Experiment: analogue potency against UBC13 ubiquitin chains – biochemical, TR-FRET, SAR follow-up (AID 504687)
Settings: UBC13 polyubiquitin formation

Ubiquitin-conjugating enzyme E2 N (Homo sapiens), sequence (P61088 whole entry, looked up): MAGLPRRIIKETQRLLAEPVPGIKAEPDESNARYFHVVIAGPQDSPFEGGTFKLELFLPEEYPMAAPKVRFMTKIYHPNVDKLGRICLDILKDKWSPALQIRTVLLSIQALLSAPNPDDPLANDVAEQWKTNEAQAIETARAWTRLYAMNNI

| IC50 | Compound |
| --- | --- |
| 0.93 µM | O=C(NCC1CCN(Cc2cccc(Cl)c2)CC1)C1CCCN(c2ncnc3c2nc2n3CCCCC2)C1 (stereo unspecified) |
| 4.28 µM | O=C(NCCCN1CCN(c2ccccc2)CC1)C1CCCN(c2ncnc3c2nc2n3CCCCC2)C1 (stereo unspecified) |
| 4.19 µM | O=C(c1ccc(S(=O)(=O)N2CCCC2)cc1)N1CCC(CN2C(=O)c3cccc4cccc(c34)C2=O)CC1 |
| inactive | CC1CN(S(=O)(=O)c2ccc(NC(=O)CCCCCN3C(=O)c4ccccc4C3=O)cc2)CC(C)O1 (stereo unspecified) |
| 4.18 µM | CN(C)CCCn1c(SCC(=O)Nc2nc(-c3cccc(Br)c3)cs2)nc2ccccc2c1=O |
| 0.45 µM | O=C(CCCn1c(=O)c2ccccc2n(Cc2ccccc2F)c1=O)NC1CCN(Cc2ccccc2)CC1 |
| 6.23 µM | CCCCN(CC)S(=O)(=O)c1ccc(C(=O)N(CCCN(C)C)c2nc3cc(C)cc(C)c3s2)cc1 |
| 1.51 µM | Cc1cc(C)c2sc(N(CCCN(C)C)C(=O)c3ccc(S(=O)(=O)N(C)Cc4ccccc4)cc3)nc2c1 |
| > 100 µM (inactive) | COC(=O)C1=C(NC(=O)CCCCCN2C(=O)c3ccccc3C2=O)SC2CCCC12 (stereo unspecified) |
| 6.02 µM | O=C1c2cccc3cccc(c23)C(=O)N1CCN1CCN(CC(O)COc2ccc(C3CCCCC3)cc2)CC1 (stereo unspecified) |
| 6.45 µM | O=C(C1CCN(c2ncnc3c2nc2n3CCCCC2)CC1)N1CCN(Cc2ccccc2)CC1 |
| 6.57 µM | CN(C)CCCN(C(=O)c1ccc(C(=O)c2ccccc2)cc1)c1nc2cc3c(cc2s1)OCO3 |
| 6.08 µM | O=C(Nc1ccc(F)c(Cl)c1)C1CCN(c2ncnc3c2nc2n3CCCCC2)CC1 |
| 5.6 µM | COc1ccc(COCC(O)CN2CCC(CN3C(=O)c4cccc5cccc(c45)C3=O)CC2)cc1OC (stereo unspecified) |
| 16.4 µM | O=C(CCCCCN1C(=O)c2cccc([N+](=O)[O-])c2C1=O)NCc1ccccc1 |
| > 100 µM (inactive) | COc1ccc(NC(=O)CCCCCN2C(=O)c3cccc([N+](=O)[O-])c3C2=O)cc1 |
| 6.86 µM | CN(C)CCCN(C(=O)c1ccc(S(=O)(=O)N2CCCC2)cc1)c1nc2ccc(Br)cc2s1 |
| 10.2 µM | O=C(CCCCCN1C(=O)c2ccccc2C1=O)NCCc1nc2ccccc2[nH]1 |
| > 100 µM (inactive) | O=C(CCCCCN1C(=O)c2ccccc2C1=O)Nc1ccc(S(=O)(=O)Nc2ncccn2)cc1 |
| > 100 µM (inactive) | CCCOC(=O)c1ccc(NC(=O)CCCCCN2C(=O)c3ccccc3C2=O)cc1 |
| 1.92 µM | O=C(NCCCN1CCN(c2ccc(F)cc2)CC1)C1CCCN(c2ncnc3c2nc2n3CCCCC2)C1 (stereo unspecified) |
| inactive | COc1ccc(CCNC(=O)CCCCCN2C(=O)c3ccccc3C2=O)cc1OC |
| inactive | O=C(C1CCN(c2ncnc3c2nc2n3CCCCC2)CC1)N1CCN(c2ccccc2)CC1 |

| IC50 | Compound |
| --- | --- |
| 4.83 µM | Cc1ccc2nc(N(CCCN(C)C)C(=O)c3ccc(S(=O)(=O)N4CCc5ccccc5C4)cc3)sc2c1 |
| 6.56 µM | CCOc1cccc2sc(N(CCCN(C)C)C(=O)c3ccc(S(=O)(=O)N(CC)Cc4ccccc4)cc3)nc12 |
| 1.9 µM | O=C1c2cccc3cccc(c23)C(=O)N1CC1CCN(CC(O)COCc2ccc3c(c2)OCO3)CC1 (stereo unspecified) |
| > 100 µM (inactive) | COCCOC(=O)c1ccc(NC(=O)CCCCCN2C(=O)c3ccccc3C2=O)cc1 |
| 4.33 µM | O=C(NCC1CCN(Cc2ccc(Cl)cc2)CC1)C1CCCN(c2ncnc3c2nc2n3CCCCC2)C1 (stereo unspecified) |
| 2.36 µM | COc1ccc(C(=O)Nn2c(C)nc3ccccc3c2=O)cc1 |
| 0.63 µM | N#Cc1ccccc1Cn1c(=O)n(CCCC(=O)NC2CCN(Cc3ccccc3)CC2)c(=O)c2ccccc21 |
| 15.8 µM | O=C(CCCCCN1C(=O)c2ccccc2C1=O)NCc1ccccc1 |
| 9.39 µM | Cc1cc(OCC(O)CN2CCN(CCN3C(=O)c4cccc5cccc(c45)C3=O)CC2)ccc1C(C)C (stereo unspecified) |
| > 100 µM (inactive) | Cc1cc(C)cc(OCCNC(=O)CCCCCN2C(=O)c3ccccc3C2=O)c1 |
| 2.28 µM | Cc1cc(C)c2sc(N(CCCN(C)C)C(=O)c3ccc(S(=O)(=O)N4CCc5ccccc5C4)cc3)nc2c1 |
| 4.75 µM | Cc1ccc(OCC(O)CN2CCN(CCN3C(=O)c4cccc5cccc(c45)C3=O)CC2)c(C)c1 (stereo unspecified) |
| 2.99 µM | O=C(CCCCn1c(=O)c2ccccc2n(Cc2ccccc2F)c1=O)NC1CCN(Cc2ccccc2)CC1 |
| 0.9 µM | O=C1c2cccc3cccc(c23)C(=O)N1CCN1CCN(CC(O)COc2ccc(Cl)cc2)CC1 (stereo unspecified) |
| > 100 µM (inactive) | Cc1ccccc1NC(=S)NC(=O)CCCCCN1C(=O)c2ccccc2C1=O |
| 1.63 µM | O=C(CCCCn1c(=O)c2ccccc2n(Cc2ccccc2)c1=O)NC1CCN(Cc2ccccc2)CC1 |
| 1.6 µM | CN(C)CCCN(C(=O)c1ccc(C(=O)c2ccccc2)cc1)c1nc2cc3c(cc2s1)OCCO3 |
| 5.92 µM | CN(C)CCCN(C(=O)c1ccc(S(=O)(=O)N2CCCCCC2)cc1)c1nc2ccc(Br)cc2s1 |
| 0.67 µM | Cc1[nH]c2c(Cl)c(Cl)ccc2c1CCNC(=O)CCCCCN1C(=O)c2ccccc2C1=O |
| 12.3 µM | CC1CCCC(C)N1CCCNC(=O)C1CCCN(c2ncnc3c2nc2n3CCCCC2)C1 (stereo unspecified) |
| 10.7 µM | O=C(NCC1CCN(Cc2ccccc2F)CC1)C1CCCN(c2ncnc3c2nc2n3CCCCC2)C1 (stereo unspecified) |
| 2.8 µM | CCc1ccc2nc(N(CCCN(C)C)C(=O)c3ccc(S(=O)(=O)N4CCc5ccccc5C4)cc3)sc2c1 |
| 12.8 µM | Cc1ccccc1OCC(O)CN1CCN(CCN2C(=O)c3cccc4cccc(c34)C2=O)CC1 (stereo unspecified) |
